Laboratory results: patent publication US10098901B2, “Derivatives of oxazaphosphorines and therapeutic uses thereof” (INSTITUT GUSTAVE ROUSSY, priority 2014, dated 2018)
Where two headings read alike, the source gives them in different places.

Key:
[1] = system: A673 (human Ewing Sarcoma cell line); test: cells; settings: for IC50: Homo sapiens, read-out: In vitro Activity (IC50) A673
Description: (§1) The experiments were conducted in the absence of cytochrome.
(§2) The cells were seeded in 96-well plates at optimal cell density determined previously and incubated with 100 μL of DMEM or RPMI containing 10% of FBS and 100 U/mL penicillin and 100 μg/mL streptomycin at 37° C., 5% CO2 in moist atmosphere. After 24 h, the cells were treated with 100 μL of the different pre-activated prodrugs at different concentrations:
(§3) Depending on the cell line, 2 to 5 h incubation are needed to obtain the optimum optical density which was measured at 490 nm wavelength using a microplate reader (EL808, Biotek Instrument). Untreated cells were used as control. Each compound concentration was tested in six replicates.

[2] = system: RMS-1 cell line; test: cells; settings: for IC50: read-out: In vitro Activity (IC50) RMS-1
Description: as §1, §2, §3

[3] = Physico-chemical characterisation of nano-assemblies (DLS, Zeta potential, drug loading); type: physicochemical; settings: nanoprecipitation acetone/water, no surfactant
Description: Nano-assemblies (NAs) from prodrugs Geranyloxy-IFO (3b) at a concentration of 2 mg/mL and 5 mg/ml, were prepared in a single step by nanoprecipitation of solution (8 mg/mL in acetone) in milliQ® water (ratio acetone:water 1:4; v:v). Formation of NAs occurred immediately without the use of any surfactant. The organic solvent was then evaporated at room temperature under vacuum using a Rotavapor® and the organic solvent-free colloidal dispersions were stored at 4° C.
The hydrodynamic diameter of the NAs was measured at 20° C. by Dynamic Light scattering using a Nanosizer ZS (Malvern Instrument Ltd, France). An amount of 20 μL of the suspension was diluted in 980 μL of Milli-Q water. The results give the mean hydrodynamic diameter of the dispersed NAs from three independent series of ten measurements. The standard deviation and the polydispersity index were also given.
The Zeta (ξ) potential was also determined by dilution of 20 μL of the suspension in 980 μL of a […] solution using a Nanosizer ZS (Malvern Instrument Ltd, France).

[4] = system: human rhabdomyosarcoma (RD cell line) xenografted in nude mice; test: Anti-tumor effect in vivo, RD xenograft; settings: intravenous
Description: In vivo cytotoxic efficacy was evaluated first on a model of human rhabdomyosarcoma xenografted in nude mice. The model used is RD cell line. The cells were first amplified in culture and counted. Cells were injected subcutaneously in both flanks of each mouse.
The administration was performed by intravenous route at day 0.

[5] = In vitro release of 4-HO-IFO in mouse plasma; type: in vitro ADME; settings: 37° C., without activation by cytochromes
[6] = system: RMS-1 cell line; settings: comparison values for squalenoyl derivatives (WO2012/076824); cited from earlier work
[7] = squalenoyl IFO derivatives described in WO2012/076824; cited from earlier work
[8] = system: A673 (human Ewing Sarcoma cell line); settings: comparison values for squalenoyl derivatives (WO2012/076824); cited from earlier work
[9] = A673, 72 h, absence of cytochrome
[10] = RMS-1, 72 h, absence of cytochrome

SMILES: CC(C)CCCC(C)CCO (stereo not drawn) [3,7-dimethyloctanol]
- cytotoxicity, in words [1]: The same results were observed
- IC50 ([1]; A673, 72 h): > 200 µM
- cytotoxicity, in words [2]: The same results were observed
- IC50 ([2]; RMS1, 72 h): > 50 µM

SMILES: CC(C)CCCC(C)CCOC1CCOP(=O)(NCCCl)N1CCCl (stereo not drawn) [13,17-Dimethyloctyloxy-IFO (3c), 13,17-Dimethyloctyloxy-IFO]
- formation of nanoparticles (self-assembly) [3]: did not provide any suspension of nanoparticles
- cytotoxicity, in words [1, 9]: did not exhibit significant cytotoxicity
- IC50 ([1]; A673, 72 h): > 200 µM
- IC50 ([1]; A673, 96 h): 24.5 ± 2.1 µM
- IC50 ([2]; RMS1, 72 h): > 50 µM
- IC50 ([2]; RMS1, 96 h): 11.3 ± 5.8 µM
- cytotoxicity, in words [2, 10]: did not exhibit significant cytotoxicity

SMILES: CC(C)=CCC/C(C)=C/CO [Geraniol, (trans)-3,7-dimethyl-2,6-octadien-1-ol]
- cytotoxicity, in words [1]: The same results were observed
- IC50 ([1]; A673, 72 h): > 200 µM
- cytotoxicity, in words [2]: The same results were observed
- IC50 ([2]; RMS1, 72 h): > 50 µM
- tumor volume growth (Vtjx/Vtj0) ([4]; single dose 59 mg/kg, day 0): No tumor growth inhibition

SMILES: CC(C)=CCC/C(C)=C/COC1CCOP(=O)(NCCCl)N1CCCl (stereo not drawn) [Geranyloxy-IFO (bulk) (3b), Geranyloxy-IFO]
- formation of nanoparticles (self-assembly) ([3]; listed as Geranyloxy-IFO): gave satisfactory NAs
- formation of nanoparticles (self-assembly) ([3]; listed as geranyloxy-IFO): able to self-organize into nanoparticles
- cytotoxicity, in words [1, 9]: significant cytotoxicity
- IC50 ([1]; A673, 72 h): 25.3 ± 1.5 µM
- IC50 ([2]; RMS1, 72 h): 9.3 ± 4.2 µM
- cytotoxicity, in words [2, 10]: significant cytotoxicity
- tumor volume growth (Vtjx/Vtj0) ([4]; single dose 158 mg/kg (equivalent to 100 mg/kg of IFO), day 0, free form, listed as Geranyloxy-IFO): showed antitumor activity
- tumor volume growth (Vtjx/Vtj0) ([4]; single dose 158 mg/kg (equivalent to 100 mg/kg of IFO), day 0, free form, listed as geranyloxy-IFO): prevent the tumor growth
- release of 4-HO-IFO, in words [5]: released

SMILES: O=P1(NCCCl)OCCCN1CCCl (stereo not drawn) [IFO, ifosfamide]
- cytotoxicity, in words [1]: did not exhibit significant cytotoxicity
- IC50 ([1]; A673, 72 h): > 200 µM
- cytotoxicity, in words [2]: did not exhibit significant cytotoxicity
- IC50 ([2]; RMS1, 72 h): > 50 µM
- tumor volume growth (Vtjx/Vtj0) ([4]; single dose 300 mg/kg, day 0): antitumor activity

SMILES: CCCCCO [Pentanol, pentanol]
- cytotoxicity, in words [1]: The same results were observed
- IC50 ([1]; A673, 72 h): > 200 µM
- cytotoxicity, in words [2]: The same results were observed
- IC50 ([2]; RMS1, 72 h): > 500 µM

SMILES: CCCCCOC1CCOP(=O)(NCCCl)N1CCCl (stereo not drawn) [Pentyloxy-IFO (3a), Pentyloxy-IFO]
- formation of nanoparticles (self-assembly) [3]: did not provide any suspension of nanoparticles
- IC50 ([1]; A673, 72 h): 17.7 ± 2.3 µM
- IC50 ([2]; RMS1, 72 h): 5.3 ± 1.7 µM

SMILES: CC(C)=CCC/C(C)=C/CC/C(C)=C/CC/C=C(\C)CC/C=C(\C)CCCOC1CCOP(=O)(NCCCl)N1CCCl (stereo not drawn) [SQ-IFO]
- IC50 [6]: 11.4 ± 5 µM
- drug loading [7]: 40.4%
- mean diameter [7]: 147 nm
- IC50 [8]: 22 ± 5 µM

SMILES: CC(C)=CCC/C(C)=C/CC/C(C)=C/CC/C=C(\C)CC/C=C(\C)CCC(=O)NCCSC1CCOP(=O)(NCCCl)N1CCCl (stereo not drawn) [SQ-thio-IFO]
- IC50 [6]: 33 ± 1.8 µM
- drug loading [7]: 36.3%
- mean diameter [7]: 170 nm
- IC50 [8]: 23.2 ± 1.3 µM
